Measured values taken from patent US20110171134A1, “(6S)-5-METHYLTETRAHYDROFOLIC ACID FOR THERAPY OF TISSUE INJURY” (priority 2008, published 2011).

Legend:
[1] = system: dorsal root ganglia (DRG) neurons
Method: The nerve graft provides a supportive environment for axon growth. Removal of the nerve segment injures the peripheral axons of DRG neurons on one side (the “conditioning” lesion), whereas neurons on the opposite side are unaffected by the peripheral injury (“unconditioned”). At 2 weeks, a fluorescent tracer is injected 1 cm into the graft and is transported to the cell bodies of DRG neurons that are able to extend axons into the graft. The fluorescent tracer is taken up in the regenerated neurons only.
Sixty four adult male Sprague-Dawley rats (200-300 gm) were subjected to surgery under ketamine/xylazine anesthesia, as previously described (FIG. 1.) The cervical cord was exposed through a C3 laminectomy and dural opening. Using a pair of sharp jeweler's forceps, a well-defined 1 mm-deep injury was made in both posterior columns. A sciatic nerve segment harvested from the left hindlimb then was implanted at the injury site using 10-0 nylon sutures in the pia. The other end of the graft was left to lie freely under the skin.
Two weeks later, 5 μl of the retrograde tracer Fluorogold was placed into the nerve graft at a distance of 1 cm from the spinal cord. […] Rather, it is picked up solely by axons that have grown into the graft and is transported retrogradely in these axons.
Twenty four hours later, the animal was deeply anesthetized and perfused through the heart with 4% paraformaldehyde. The L5 dorsal root ganglia (DRG) were removed bilaterally, postfixed, incubated in 30% sucrose overnight, and quick frozen in Histo Prep (TM). Sections were cut at 10 μm with a cryostat, floated on pretreated glass slides, and stored at −80° C.
Animals were treated with intraperitoneal doses of (6S)-5-methyltetrahydrofolic acid ranging from 10 to 800 μg/kg, starting 3 days before the injury and given daily for 2 weeks.
Dorsal root ganglion sections were examined under a fluorescence microscope and the number of fluorescently labeled cells was counted (see FIG. 1.B). The same sections were then counterstained with cresyl violet to reveal the cell somas of all neurons in the DRG. Fluorescently labeled cells and total cells were counted in treated and control animals by an observer unaware of the treatment conditions. The percentage of labeled DRG cells in each animal was calculated. To determine neuronal numbers accurately, the method of Abercombie was used, in which only cells with visible nucleoli are counted.
The Wilcoxon rank-sum test and box-and-whiskers plots were used to compare the different groups.

[2] = system: dorsal root ganglia (DRG) neurons; settings: cited from earlier work
[3] = regeneration of axons into peripheral nerve grafts after damage to the spinal cord

Row | SMILES | percentage of conditioned DRG neurons that were fluorescently labeled ([1]; 80 ug/kg daily, 3 days before injury to 2 weeks after, with conditioning peripheral nerve lesion, mean ± SEM, n=13) | mean neurons per ganglion regenerating, treatment combined with peripheral injury ([1]; 80 ug/kg, conditioned DRG) [neurons per ganglion] | spinal regeneration, conditioned animals compared with controls, highest dose ([1]; 800 ug/kg, conditioned) | spinal regeneration, unconditioned group, highest dose ([1]; 800 ug/kg, unconditioned) | regeneration in unconditioned DRG in treated animals (FIG. 2) ([1]; 10-400 g/kg as printed, intraperitoneal daily, all treated groups except 800 ug/kg) | mean labeled neurons per ganglion, unconditioned DRG ([1]; 80 N-g/kg intraperitoneal daily, from 3 days before injury for 2 weeks, absence of peripheral nerve injury, n=13) | percentage of labeled unconditioned DRG neurons ([1]; 80 N-g/kg intraperitoneal daily, absence of peripheral nerve injury, mean ± SEM, n=13) | regeneration of conditioned DRG at doses higher or lower than 80 ug/kg ([1]; conditioned, compared with the 80 ug/kg dose) | axons per ganglion regenerating, treatment without peripheral nerve injury ([1]; optimal dose of 80 ug/kg, unconditioned) | increase in regenerative efficacy [1, 3] [%] | regeneration observed with folic acid ([2]; mean ± SEM, n=15, Iskandar, Ann Neurol. 2004) | increase in regenerative efficacy (folic acid comparison) [2, 3]
1 | CN1c2c(nc(N)[nH]c2=O)NC[C@@H]1CNc1ccc(C(=O)N[C@@H](CCC(=O)O)C(=O)O)cc1 [(6S)-5-methyltetrahydrofolic acid] | 30.68%±2.97 | 980 | decreased regeneration | no evidence of spinal regeneration | Measurable regeneration | 320 labeled neurons per ganglion | 10.25%±2.30 | less effective | approximately 319 axons per ganglion | ≥ 30 |  | 
2 | Nc1nc2ncc(CNc3ccc(C(=O)N[C@@H](CCC(=O)O)C(=O)O)cc3)nc2c(=O)[nH]1 [folic acid] |  |  |  |  |  |  |  |  |  |  | 16.26%±1.12 | approximately 16%
